Laboratory results published in US20240082416A1, “AMATOXIN ANALOGS AND USES THEREOF” (THE UNIVERSITY OF BRITISH COLUMBIA, priority 2020, published 2024).
Where “and” joins values, the source holds several entries; their conditions need not be identical. Identical values can stand only once. Starred links: 1 amine or outer side, 2 acyl side, 3 side chain; linkers in the order of their positions; H or OH if unused. Positions of bridges follow the written chain, without caps; N, C: chain ends. Non-standard residues stand in square brackets, D forms with d. Residues, ends and D or L forms follow the SMILES beside them. Trp(2-yl) = O=C([C@H](Cc1c([*:3])[nH]c2ccccc12)N[*:1])[*:2]; Ile(4R-OH,5-OH) = C[C@H]([C@H](N)C(=O)O)[C@@H](O)CO; Pro(4R-NH2) = N[C@H]1CN[C@H](C(=O)O)C1

Legend:
[1] = Viability assay against CHO cells (MTT colorimetric assay); format: cell-based, Chinese hamster; conditions: Chinese hamster, CHO cells, 72 h, replicates n = 1, 2, 3, read-out: % viable cells
[2] = test system: CHO cells; assay: as above; format: cell-based, Chinese hamster; conditions: 72 h, replicates n = 1, 2, 3, listed as NH2-Pro-amanitin (6)
[3] = biological target: T1, Pol II (Homo sapiens, UniProt P24928); assay: In vitro transcription runoff assay using HeLaScribe nuclear extract; format: biochemical; conditions: for Transcription activity E (%): mean ± standard deviation
T1 construct: HeLaScribe® nuclear extract containing Pol II and all other transcription factors; purchased Promega; host or cells: HeLa nuclear extract (endogenous protein)

Q: What does the source list for `CC[C@H](C)[C@@H]1NC(=O)CNC(=O)[C@@H]2Cc3c([nH]c4ccccc34)SC[C@H](NC(=O)CNC1=O)C(=O)N[C@@H](CC(N)=O)C(=O)N1C[C@H](N)C[C@H]1C(=O)N[C@@H]([C@@H](C)[C@@H](O)CO)C(=O)N2` [Compound 6, NH2-Pro-amanitin] (cyclo(CN[Pro(4R-NH2)][Ile(4R-OH,5-OH)][Trp(2-yl)]GIG); thioether 1-5)?
A: viability at 72 h, 1e-05 M ([1]; 1e-005 M): 91%; viability at 72 h, 1.25e-06 M ([1]; 1.25e-006 M): 95%; viability at 72 h, 1.56e-07 M ([1]; 1.56e-007 M): 95%; viability at 72 h, 2e-05 M ([1]; 2e-005 M): 92%; viability at 72 h, 2.5e-06 M ([1]; 2.5e-006 M): 86%; viability at 72 h, 3.125e-07 M ([1]; 3.125e-007 M): 86%; viability at 72 h, 5e-06 M ([1]; 5e-006 M): 87%; viability at 72 h, 6.25e-07 M ([1]; 6.25e-007 M): 92%; viability at 72 h, 7.8e-08 M ([1]; 7.8e-008 M): 96%; % viable cells ([2]; 1e-005 M): 81% and 83%; % viable cells ([2]; 1.25e-006 M): 88%; % viable cells ([2]; 1.56e-007 M): 97%; % viable cells ([2]; 2e-005 M): 89% and 85%; % viable cells ([2]; 2.5e-006 M): 85% and 82%; % viable cells ([2]; 5e-006 M): 79% and 84%; % viable cells ([2]; 6.25e-007 M): 85%; % viable cells ([2]; 7.8e-008 M): 89%; Transcription activity E (%) ([3]; 30 nM): 91.7 ± 9.3%; Transcription activity E (%) ([3]; 100 nM): 82.3 ± 12.8%; Transcription activity E (%) ([3]; 300 nM): 55.0 ± 23.6%; Transcription activity E (%) ([3]; 1000 nM): 38.6 ± 18.3%; Transcription activity E (%) ([3]; 3000 nM): 19.8 ± 9.9%; IC50 ([3]; IC50): 550 ± 90 nM; IC50 ([3]; IC50 (nM), Table 11, 3 parameter logistic fit): 550 ± 90 nM; IC50 ([3]; IC50 (nM), Table 12, n = 3, high values estimated from activity at [I]=1.0 μM): 550 ± 90 nM
